Measurements reported in patent US7087721B2, “Compositions, kits and treating methods for alteration cell-cell adhesion, transport, or permeation properties of tissues” (priority 2003, dated 2006).
“Also recorded” adds a separate entry of the source.

Assays:
Assay type in all cases: cell-based, human
[1] = system: TMG-expressed A2058 cells; experiment: Carbohydrate specificity for TM-mediated cell adhesion, TMG cells; settings: 37° C. overnight, light microscopy
Description: A variety of simple carbohydrate (D-mannose, D-galactose, D-lactose, D-glucose, D-xylose), heparin, LMW heparin, chondroitin sulfate A, chondroitin sulfate B, and chondroitin sulfate C were tested to determine their ability to block cell-cell adhesion of the TMG cells. In these experiments, the carbohydrate to be tested was added to the cell monolayer to compare its ability to compete with the TMG. The plates were then incubated at 37° C. for overnight and examined by light microscopy (Leica Model DM IL).
FIG. 8. Effect of different carbohydrates on the cell adhesion of TMG cells. TMG-expressed A2058 cells were challenged with 20 mg/ml of monosaccharides (including D-glucose, D-galactose, D-lactose, D-xylose, D-mannose), 20 mg/ml of chondroitin sulfate A, B, C, or 15 mg/ml of heparin, LMW heparin. Following incubation at 37° C. overnight, images were obtained. Each image is representative of the observations from three separate experiments.

A2058TMG cells = experiment: Calcium-switch method, A2058TMG cells; settings: 4 mM EGTA, 40 min
Description: (§1) Cells were grown overnight on glass coverslips at a constant density (5×10^4 cells/well) in 24 well culture plates. The cells were serum-starved for 8 h and Ca^2+ was removed by incubation with DMEM medium containing 4 mM ethyleneglycol-bis-(Amino-Ethyl-Ether) N,N,N′,N′-tetraacetic acid (EGTA) and 1 mM MgCl2 at 37° C. After 1 h, the DMEM medium containing 1.8 mM Ca^2+ was added to replace the Ca^2+-free medium. In control experiments, cells received fresh media in the absence of EGTA. In selected experiments, 10 μg/ml of anti-TM lectin-like antibody, 10 μg/ml of isotype-specific control antibody or anti-E-cadherin antibody (20 μg/ml) was added to the Ca^2+-containing medium.
(§2) FIG. 6. TM participates in Ca^2+-dependent cell-cell adhesion. A2058TMG (A–E) and HaCaT cells (F–J) were left untreated (A, F) or treated with 4 mM EGTA for 40 min (B–E, G–J). The EGTA containing medium was then replaced with Ca^2+-containing medium in the presence of 10 μg/ml control IgG (C, H) for 1 h. After treatment with EGTA, cells were incubated for 1 h in medium containing 1.8 mM Ca^2+ and 10 ? g/ml function-blocking anti-lectin-like antibody (D, I), or anti-E-cadherin antibody (E, J). Green fluorescence shown in panels A to E is the GFP-tagged TM proteins, whereas panels F to J indicate the TM distribution by anti-EGF-like domain antibody detected with tetramethylrhodamine-conjugated anti-mouse antibody. […]

HaCaT cells = experiment: Calcium-switch method, HaCaT cells; settings: 4 mM EGTA, 40 min
Description: as §1, §2

Row | Compound | ability to disperse the close clustering morphology of TMG culture cells ([1]; 20 mg/ml) | further results
1 | O=C[C@H](O)[C@@H](O)[C@@H](O)[C@H](O)CO [D-galactose] | only mannose was found to be effective | –
2 | O=C[C@H](O)[C@@H](O)[C@H](O)[C@H](O)CO [D-glucose] | only mannose was found to be effective | –
3 | OC[C@H]1O[C@@H](O[C@H]2[C@H](O)[C@@H](O)C(O)O[C@@H]2CO)[C@H](O)[C@@H](O)[C@H]1O (stereo partly drawn) [D-lactose] | only mannose was found to be effective | –
4 | O=C[C@@H](O)[C@@H](O)[C@H](O)[C@H](O)CO [D-mannose] | effective in inducing of cell dispersion; also recorded: highest dispersing effect | –
5 | O=C[C@H](O)[C@@H](O)[C@H](O)CO [D-xylose] | only mannose was found to be effective | –
6 | O=C(O)CN(CCOCCOCCN(CC(=O)O)CC(=O)O)CC(=O)O [EGTA, ethyleneglycol-bis-(Amino-Ethyl-Ether) N,N,N′,N′-tetraacetic acid] | – | cell-to-cell contacts in EGTA-containing medium (A2058TMG cells): disrupted; cell-to-cell contacts in EGTA-containing medium (HaCaT cells): disrupted
7 | chondroitin 4-sulfate [chondroitin sulfate A] | could induce cell dispersion | –
8 | chondroitin 6-sulfate [chondroitin sulfate C] | could induce cell dispersion | –
9 | dermatan sulfate [chondroitin sulfate B] | no effect | –
10 | heparin | – | ability to disperse the close clustering morphology of TMG culture cells ([1]; 15 mg/ml): minor inhibitory effect on the cell adhesion
